Activity calls are given as the source filed them.
Tests used:
Exodeoxyribonuclease V = molecular target: T1, Exodeoxyribonuclease V (Escherichia coli (strain K12), UniProt P04993+P07648+P08394); test: RecBCD inhibition via phage-restricted bacterial growth – absorbance, V66 E. coli, mutant T4 phage, counter-screen for AddAB inhibitor project, dose response (AID 492957); format: functional, cell-based, Escherichia coli str. K-12 substr. MG1655
T1 sequence (P04993 whole entry): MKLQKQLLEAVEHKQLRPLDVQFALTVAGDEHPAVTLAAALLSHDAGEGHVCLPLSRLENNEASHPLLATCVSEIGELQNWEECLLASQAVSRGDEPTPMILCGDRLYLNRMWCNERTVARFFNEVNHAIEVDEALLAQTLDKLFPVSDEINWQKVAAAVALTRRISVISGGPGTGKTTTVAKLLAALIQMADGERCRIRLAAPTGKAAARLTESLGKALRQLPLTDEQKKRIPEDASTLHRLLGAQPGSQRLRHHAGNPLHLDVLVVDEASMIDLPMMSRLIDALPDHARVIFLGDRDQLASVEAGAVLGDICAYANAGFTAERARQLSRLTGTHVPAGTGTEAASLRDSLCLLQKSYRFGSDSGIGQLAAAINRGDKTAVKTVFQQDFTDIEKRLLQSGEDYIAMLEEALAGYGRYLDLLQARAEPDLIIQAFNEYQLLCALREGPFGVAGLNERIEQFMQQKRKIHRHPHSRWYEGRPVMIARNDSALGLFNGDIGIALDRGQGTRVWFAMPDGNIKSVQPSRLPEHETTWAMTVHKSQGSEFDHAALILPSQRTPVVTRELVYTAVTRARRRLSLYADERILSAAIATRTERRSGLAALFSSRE
T1 sequence (P07648 whole entry): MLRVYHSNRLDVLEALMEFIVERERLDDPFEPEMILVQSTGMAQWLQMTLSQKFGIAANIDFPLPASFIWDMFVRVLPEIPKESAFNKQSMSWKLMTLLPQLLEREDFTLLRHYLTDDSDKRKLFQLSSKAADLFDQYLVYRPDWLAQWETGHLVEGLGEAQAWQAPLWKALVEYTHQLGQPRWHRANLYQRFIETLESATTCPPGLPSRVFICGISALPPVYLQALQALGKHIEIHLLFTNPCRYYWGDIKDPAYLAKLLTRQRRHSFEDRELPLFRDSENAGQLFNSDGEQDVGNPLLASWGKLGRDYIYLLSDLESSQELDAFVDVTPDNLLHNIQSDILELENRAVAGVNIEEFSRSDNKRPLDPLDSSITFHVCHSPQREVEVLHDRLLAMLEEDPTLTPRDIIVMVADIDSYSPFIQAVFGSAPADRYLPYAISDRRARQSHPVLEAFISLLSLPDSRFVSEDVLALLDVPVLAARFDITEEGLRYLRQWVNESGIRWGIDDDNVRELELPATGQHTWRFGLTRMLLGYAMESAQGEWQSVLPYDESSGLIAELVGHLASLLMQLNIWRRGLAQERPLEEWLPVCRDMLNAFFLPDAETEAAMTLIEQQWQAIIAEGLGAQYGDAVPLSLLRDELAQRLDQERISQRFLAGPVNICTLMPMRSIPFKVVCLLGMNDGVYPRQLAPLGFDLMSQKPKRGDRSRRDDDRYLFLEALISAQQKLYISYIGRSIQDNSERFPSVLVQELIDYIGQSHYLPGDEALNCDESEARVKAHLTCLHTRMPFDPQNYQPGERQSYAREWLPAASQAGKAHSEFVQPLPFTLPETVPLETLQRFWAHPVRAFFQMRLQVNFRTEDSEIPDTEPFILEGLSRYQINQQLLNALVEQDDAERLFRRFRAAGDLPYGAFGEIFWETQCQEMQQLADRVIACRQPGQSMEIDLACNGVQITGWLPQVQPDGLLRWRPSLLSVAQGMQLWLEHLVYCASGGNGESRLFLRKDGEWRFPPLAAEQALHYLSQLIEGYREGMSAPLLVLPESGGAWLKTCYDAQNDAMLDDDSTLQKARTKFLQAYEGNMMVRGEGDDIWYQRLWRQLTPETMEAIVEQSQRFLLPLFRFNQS
T1 sequence (P08394 whole entry): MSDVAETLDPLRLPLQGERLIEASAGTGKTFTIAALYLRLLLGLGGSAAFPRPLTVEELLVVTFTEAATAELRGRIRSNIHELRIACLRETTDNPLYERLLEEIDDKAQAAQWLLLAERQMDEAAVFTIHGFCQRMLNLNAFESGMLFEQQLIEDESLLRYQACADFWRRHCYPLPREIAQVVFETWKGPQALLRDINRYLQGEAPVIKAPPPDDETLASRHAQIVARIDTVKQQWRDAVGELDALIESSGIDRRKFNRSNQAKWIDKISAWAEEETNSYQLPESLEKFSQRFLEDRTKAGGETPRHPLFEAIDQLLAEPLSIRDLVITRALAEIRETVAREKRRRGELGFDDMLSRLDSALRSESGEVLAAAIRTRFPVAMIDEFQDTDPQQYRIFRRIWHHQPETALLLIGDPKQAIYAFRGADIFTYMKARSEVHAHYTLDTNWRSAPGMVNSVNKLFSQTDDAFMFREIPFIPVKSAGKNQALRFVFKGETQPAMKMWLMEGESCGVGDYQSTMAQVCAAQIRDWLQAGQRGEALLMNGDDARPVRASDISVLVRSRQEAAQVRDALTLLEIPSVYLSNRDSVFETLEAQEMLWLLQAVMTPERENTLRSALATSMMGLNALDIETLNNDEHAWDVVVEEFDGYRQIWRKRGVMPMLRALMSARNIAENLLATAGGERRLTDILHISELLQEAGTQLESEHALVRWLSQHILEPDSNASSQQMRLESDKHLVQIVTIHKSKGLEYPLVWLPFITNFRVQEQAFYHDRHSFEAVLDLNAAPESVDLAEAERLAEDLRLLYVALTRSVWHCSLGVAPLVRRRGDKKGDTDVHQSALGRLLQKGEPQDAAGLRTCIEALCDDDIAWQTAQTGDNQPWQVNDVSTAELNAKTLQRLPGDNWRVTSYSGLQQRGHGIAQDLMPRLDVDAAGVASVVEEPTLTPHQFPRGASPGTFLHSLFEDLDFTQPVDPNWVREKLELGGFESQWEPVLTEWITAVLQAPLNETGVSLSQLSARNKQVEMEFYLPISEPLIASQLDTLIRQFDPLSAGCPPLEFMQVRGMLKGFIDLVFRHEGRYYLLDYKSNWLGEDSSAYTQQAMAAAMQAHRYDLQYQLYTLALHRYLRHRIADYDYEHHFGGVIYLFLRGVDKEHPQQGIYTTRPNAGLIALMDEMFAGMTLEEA

[1] = molecular target: Tyrosine-protein kinase JAK2 (Homo sapiens, UniProt O60674); format: functional;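 also: JAK2 tested as one member of a kinase panel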
[2] = molecular target: Serine/threonine-protein kinase pim-1 (Homo sapiens, UniProt P11309); format: functional
[3] = molecular target: Insulin-like growth factor 1 receptor (Homo sapiens, UniProt P08069); test: Navigating the Kinome. Panel member name: IGF1R; format: functional
[4] = molecular target: Leucine-rich repeat serine/threonine-protein kinase 2 (Homo sapiens, UniProt Q5S007); format: functional;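 also: value from a broad kinome-wide panel profiling study in which LRRK2 was one of the kinases tested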
Sequence of Leucine-rich repeat serine/threonine-protein kinase 2 (Q5S007 whole entry): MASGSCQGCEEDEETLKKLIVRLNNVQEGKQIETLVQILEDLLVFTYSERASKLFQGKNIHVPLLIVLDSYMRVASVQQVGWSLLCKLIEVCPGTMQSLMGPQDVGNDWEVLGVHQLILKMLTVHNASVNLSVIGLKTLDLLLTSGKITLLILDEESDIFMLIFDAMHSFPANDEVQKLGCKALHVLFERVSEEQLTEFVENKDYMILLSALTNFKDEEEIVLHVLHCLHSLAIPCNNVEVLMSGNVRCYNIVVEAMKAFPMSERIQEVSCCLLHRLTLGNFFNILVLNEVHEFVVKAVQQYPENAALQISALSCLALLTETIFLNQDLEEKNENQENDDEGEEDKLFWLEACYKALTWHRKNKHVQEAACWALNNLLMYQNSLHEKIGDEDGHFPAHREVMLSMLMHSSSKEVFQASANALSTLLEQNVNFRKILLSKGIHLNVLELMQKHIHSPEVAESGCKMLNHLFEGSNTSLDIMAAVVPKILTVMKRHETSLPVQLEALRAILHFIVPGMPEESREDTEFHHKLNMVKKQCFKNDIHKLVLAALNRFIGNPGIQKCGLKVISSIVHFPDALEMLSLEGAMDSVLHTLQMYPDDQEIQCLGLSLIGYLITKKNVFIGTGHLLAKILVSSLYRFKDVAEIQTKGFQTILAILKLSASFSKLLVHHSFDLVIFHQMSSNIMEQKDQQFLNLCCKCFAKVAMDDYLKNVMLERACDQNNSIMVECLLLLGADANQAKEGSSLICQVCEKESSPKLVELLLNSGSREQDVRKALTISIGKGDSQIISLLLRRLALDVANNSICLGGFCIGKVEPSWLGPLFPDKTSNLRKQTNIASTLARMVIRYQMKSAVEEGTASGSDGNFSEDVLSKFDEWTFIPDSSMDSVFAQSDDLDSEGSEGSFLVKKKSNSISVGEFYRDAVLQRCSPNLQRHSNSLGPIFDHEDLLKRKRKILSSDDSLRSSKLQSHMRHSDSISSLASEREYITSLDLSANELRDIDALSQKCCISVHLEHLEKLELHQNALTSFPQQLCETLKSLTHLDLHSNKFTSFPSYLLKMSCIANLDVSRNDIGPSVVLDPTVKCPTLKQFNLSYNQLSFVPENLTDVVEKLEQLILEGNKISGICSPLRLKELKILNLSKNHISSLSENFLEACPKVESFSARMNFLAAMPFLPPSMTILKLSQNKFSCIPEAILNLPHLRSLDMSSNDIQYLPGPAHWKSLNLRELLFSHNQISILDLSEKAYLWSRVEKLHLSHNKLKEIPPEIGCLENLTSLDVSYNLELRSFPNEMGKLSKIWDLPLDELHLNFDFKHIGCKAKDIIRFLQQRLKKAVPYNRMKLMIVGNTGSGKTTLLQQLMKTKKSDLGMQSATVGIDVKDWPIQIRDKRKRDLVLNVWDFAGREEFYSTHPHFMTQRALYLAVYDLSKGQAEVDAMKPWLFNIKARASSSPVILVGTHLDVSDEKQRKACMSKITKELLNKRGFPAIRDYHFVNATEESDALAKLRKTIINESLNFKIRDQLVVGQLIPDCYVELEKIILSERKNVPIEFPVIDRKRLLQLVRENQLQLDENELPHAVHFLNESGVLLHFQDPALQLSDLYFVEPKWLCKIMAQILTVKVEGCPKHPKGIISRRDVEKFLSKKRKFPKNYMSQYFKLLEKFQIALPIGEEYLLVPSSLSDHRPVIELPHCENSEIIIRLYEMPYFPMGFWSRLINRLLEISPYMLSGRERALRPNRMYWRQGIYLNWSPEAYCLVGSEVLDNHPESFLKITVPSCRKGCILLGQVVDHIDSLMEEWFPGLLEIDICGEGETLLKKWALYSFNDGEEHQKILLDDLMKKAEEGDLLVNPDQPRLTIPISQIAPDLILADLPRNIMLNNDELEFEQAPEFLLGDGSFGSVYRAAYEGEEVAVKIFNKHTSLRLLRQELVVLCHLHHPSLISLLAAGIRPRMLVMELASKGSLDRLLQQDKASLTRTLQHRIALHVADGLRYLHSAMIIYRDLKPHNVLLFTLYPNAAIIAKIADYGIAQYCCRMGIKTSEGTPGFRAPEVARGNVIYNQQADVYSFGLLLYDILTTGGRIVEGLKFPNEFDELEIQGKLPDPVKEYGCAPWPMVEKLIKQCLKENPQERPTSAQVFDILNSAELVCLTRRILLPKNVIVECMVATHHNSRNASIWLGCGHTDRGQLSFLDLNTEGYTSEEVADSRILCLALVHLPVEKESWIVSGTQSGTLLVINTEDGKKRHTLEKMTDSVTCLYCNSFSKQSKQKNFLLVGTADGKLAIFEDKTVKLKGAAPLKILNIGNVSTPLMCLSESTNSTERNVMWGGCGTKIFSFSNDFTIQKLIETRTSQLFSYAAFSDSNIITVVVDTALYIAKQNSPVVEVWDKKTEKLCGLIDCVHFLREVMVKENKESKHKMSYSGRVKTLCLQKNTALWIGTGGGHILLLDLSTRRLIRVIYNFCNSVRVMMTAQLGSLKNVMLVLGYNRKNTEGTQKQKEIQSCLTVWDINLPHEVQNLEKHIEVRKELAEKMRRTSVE

Sequence of Insulin-like growth factor 1 receptor (P08069 31-736 limits assumed): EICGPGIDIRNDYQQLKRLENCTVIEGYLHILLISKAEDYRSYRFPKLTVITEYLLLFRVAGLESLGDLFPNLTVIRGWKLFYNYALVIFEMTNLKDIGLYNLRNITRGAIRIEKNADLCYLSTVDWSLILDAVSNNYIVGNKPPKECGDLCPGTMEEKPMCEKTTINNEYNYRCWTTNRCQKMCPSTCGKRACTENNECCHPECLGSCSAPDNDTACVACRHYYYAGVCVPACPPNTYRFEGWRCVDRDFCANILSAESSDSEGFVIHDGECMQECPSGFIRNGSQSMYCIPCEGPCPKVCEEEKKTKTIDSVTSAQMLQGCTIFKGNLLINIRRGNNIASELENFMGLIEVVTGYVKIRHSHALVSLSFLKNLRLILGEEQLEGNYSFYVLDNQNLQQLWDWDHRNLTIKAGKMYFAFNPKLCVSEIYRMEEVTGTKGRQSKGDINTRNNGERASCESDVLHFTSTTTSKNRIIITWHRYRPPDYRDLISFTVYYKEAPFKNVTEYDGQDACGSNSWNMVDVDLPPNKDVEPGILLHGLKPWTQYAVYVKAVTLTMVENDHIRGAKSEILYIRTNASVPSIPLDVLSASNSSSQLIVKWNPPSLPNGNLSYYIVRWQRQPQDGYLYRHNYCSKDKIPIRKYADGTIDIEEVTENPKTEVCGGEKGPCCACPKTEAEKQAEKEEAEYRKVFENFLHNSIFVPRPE
Sequence of Insulin-like growth factor 1 receptor (P08069 741-1367 limits assumed): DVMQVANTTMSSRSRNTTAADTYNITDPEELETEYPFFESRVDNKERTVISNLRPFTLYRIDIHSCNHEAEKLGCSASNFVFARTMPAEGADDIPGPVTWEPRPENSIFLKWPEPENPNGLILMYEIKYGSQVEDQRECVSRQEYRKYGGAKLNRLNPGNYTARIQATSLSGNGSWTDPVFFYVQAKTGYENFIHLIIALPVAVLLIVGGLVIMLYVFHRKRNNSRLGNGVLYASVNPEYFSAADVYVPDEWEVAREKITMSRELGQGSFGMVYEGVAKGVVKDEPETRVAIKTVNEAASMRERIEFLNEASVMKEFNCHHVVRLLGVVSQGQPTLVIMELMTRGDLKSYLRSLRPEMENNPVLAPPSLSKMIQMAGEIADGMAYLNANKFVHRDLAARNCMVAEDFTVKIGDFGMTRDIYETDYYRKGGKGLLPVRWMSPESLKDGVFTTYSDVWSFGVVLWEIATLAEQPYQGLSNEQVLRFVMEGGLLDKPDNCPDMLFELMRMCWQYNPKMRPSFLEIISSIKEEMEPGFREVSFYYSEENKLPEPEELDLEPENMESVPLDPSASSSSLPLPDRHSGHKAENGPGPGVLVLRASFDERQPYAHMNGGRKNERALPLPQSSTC
Sequence of Tyrosine-protein kinase JAK2 (O60674 whole entry): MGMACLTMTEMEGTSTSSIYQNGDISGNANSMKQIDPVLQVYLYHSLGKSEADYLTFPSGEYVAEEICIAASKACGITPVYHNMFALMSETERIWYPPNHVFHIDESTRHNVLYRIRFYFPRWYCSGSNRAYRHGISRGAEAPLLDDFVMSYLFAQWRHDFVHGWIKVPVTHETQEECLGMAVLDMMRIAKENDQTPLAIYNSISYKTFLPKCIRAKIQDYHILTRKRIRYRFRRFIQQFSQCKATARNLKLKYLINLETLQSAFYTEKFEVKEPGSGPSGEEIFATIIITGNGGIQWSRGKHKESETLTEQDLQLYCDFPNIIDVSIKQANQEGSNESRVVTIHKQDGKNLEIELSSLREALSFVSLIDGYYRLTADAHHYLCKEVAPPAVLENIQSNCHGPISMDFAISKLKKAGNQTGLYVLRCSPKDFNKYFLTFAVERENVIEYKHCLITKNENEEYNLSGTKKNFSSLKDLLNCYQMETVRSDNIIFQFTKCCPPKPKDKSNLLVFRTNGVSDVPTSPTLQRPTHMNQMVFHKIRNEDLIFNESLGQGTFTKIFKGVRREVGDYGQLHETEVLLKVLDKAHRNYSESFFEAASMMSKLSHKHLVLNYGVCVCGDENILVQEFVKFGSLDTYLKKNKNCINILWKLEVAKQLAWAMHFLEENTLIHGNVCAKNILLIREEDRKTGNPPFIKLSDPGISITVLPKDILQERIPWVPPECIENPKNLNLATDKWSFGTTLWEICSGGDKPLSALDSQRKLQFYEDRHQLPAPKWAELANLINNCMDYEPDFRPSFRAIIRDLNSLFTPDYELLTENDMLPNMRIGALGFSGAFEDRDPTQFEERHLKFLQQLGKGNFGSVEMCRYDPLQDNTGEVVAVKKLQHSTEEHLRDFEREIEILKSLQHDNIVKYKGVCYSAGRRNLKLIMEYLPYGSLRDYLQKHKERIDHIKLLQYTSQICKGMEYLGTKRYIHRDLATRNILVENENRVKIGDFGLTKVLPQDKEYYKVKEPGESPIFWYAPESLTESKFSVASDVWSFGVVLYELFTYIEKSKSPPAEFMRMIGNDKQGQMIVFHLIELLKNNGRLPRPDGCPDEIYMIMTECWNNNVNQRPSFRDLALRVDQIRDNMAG

SMILES | IC50 (Exodeoxyribonuclease V) | Ki [1] | Ki [2] | Ki [3] | Ki [4]
CCCC(=O)NC(c1ccc(N(C)C)cc1)c1ccc2cccnc2c1O (stereo not given) | > 119000 nM (inactive) |  |  |  | 
O=C1NC(=O)C(c2c[nH]c3ccccc23)=C1c1nc(N2CCNCC2)nc2ccccc12 |  | > 2510 nM (inactive) | 100 nM (active) | > 2510 nM (inactive) | 398 nM (active)

Reference: ChEMBL document CHEMBL1201862, “PubChem BioAssay data set” (2004)
